Experiment: gradient 5% acetonitrile 3 min, to 50% in 2 min, to 85% in 15 min, held 3 min, 100 µL/min
Settings: column: Zorbax Extend-C18 2.1 x 50 mm; eluents: water / acetonitrile, 0.1% formic acid
In short: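 Retention time was recorded from adduct peaks, which were picked computationally and each inspected manually. Pure standards ran in mixtures of ~100 molecules on HPLC coupled to a quadrupole time-of-flight mass spectrometer, in positive and negative ionization mode, through a Zorbax Extend-C18 column (2.1 × 50 mm, 1.8 μm) at 100 μL/min. Eluents were water and acetonitrile, each with 0.1% formic acid.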

Row | SMILES | RP-LC retention time [s]
1 | O=C(c1cccnc1)C1Cc2ccccc2C1=O (stereo not drawn) | 884
2 | COc1cc(-c2noc(-c3nc(-c4ccccc4F)no3)n2)cc(OC)c1OC | 1140
3 | O=C(CS(=O)(=O)c1cn(Cc2cccc(F)c2)c2ccccc12)Nc1ccc(F)cc1 | 918
4 | CCS(=O)(=O)N1CCc2c(c(CN(C(=O)c3ccc(F)cc3)c3ccccc3)nn2C)C1 | 804
5 | COc1cccc(C(=O)Nc2nnc(C3CC(=O)N(c4ccccc4)C3)o2)c1 (stereo not drawn) | 690
6 | CN(CC1CCOCC1)S(=O)(=O)Cc1ccccc1 | 787
7 | CCc1nc(-c2cc(S(=O)(=O)N3CCC(C(=O)NC4CC4)CC3)c(C)s2)no1 | 744
8 | O=S(=O)(c1cccc(-c2nnc(-c3ccc(F)cc3)o2)c1)N1CCCCC1 | 1080
9 | O=C(CCn1c(=O)sc2ccccc21)Nc1nc(-c2ccccc2)cs1 | 1010
10 | CCOc1ccc(-c2csc3c(=O)n(Cc4ccc(Br)cc4)cnc23)cc1OCC | 1210
11 | O=C(NCCCOC(=O)c1ccccc1)c1ccncc1 | 613
12 | O=C(Nc1cccc(-c2nnc3n2CCCC3)c1)c1ccsc1 | 659
13 | C=CCNC(=O)c1cn(-c2cc(-c3nc(C4CC4)no3)ccn2)cn1 | 800
14 | O=C(Cc1cccs1)N1CCN(Cc2nc(-c3ccc(Cl)cc3)cs2)CC1 | 754
15 | COc1cccc(C2=NN(C(C)=O)C(c3cccc(Br)c3)O2)c1OC(C)=O (stereo not drawn) | 1070
16 | Cn1c(=O)sc2cc(S(=O)(=O)N3CCC(C(=O)Nc4ccc(F)c(Cl)c4)CC3)ccc21 | 938
17 | COc1ccc(N2CC(c3noc(-c4ccc(C(C)(C)C)cc4)n3)CC2=O)cc1 (stereo not drawn) | 1200
18 | CSc1cccc(NC(=O)CCc2c(-c3ccc(F)cc3)nc3ccccn23)c1 | 713
19 | COc1cccc(CNC(=O)Cn2c(=O)c3cc(-c4ccco4)nn3c3ncccc32)c1 | 771
20 | COc1ccccc1-c1nc(Cc2noc(-c3ccccc3F)n2)c(C)o1 | 1020
21 | CCN(CC)S(=O)(=O)c1ccc(NC(=O)c2ccc3c(=O)n4c(nc3c2)CCCCC4)cc1 | 875
22 | CCn1nccc1C(=O)NC(C)(C)c1nc2c(c(C(N)=O)n1)OCO2 | 614
23 | COc1cc(-c2nc3ccc(Cl)cn3c2Nc2ccc3c(c2)OCCO3)ccc1O | 680

Row | SMILES | RP-LC retention time [s]
24 | CC1(C)C(=O)N(CC(=O)Nc2cccc(F)c2)c2ccccc21 | 886
25 | CCc1noc(NC(C)=O)c1-c1ccc(C)c(S(=O)(=O)Nc2ccc(C)c(Cl)c2)c1 | 914
26 | Cc1ccc(C)c(NC(=O)Nc2ccc3nnc(C)n3c2)c1 | 695
27 | O=C(NCc1cccc(Cl)c1)c1c(O)c2cccnc2n(-c2ccccc2)c1=O | 1220
28 | CC(C)CC(=O)Nc1cc2c(cc1S(=O)(=O)c1ccc(F)cc1)n(C)c(=O)n2C | 847
29 | Cc1cccc(-n2cc(C(=O)OCc3ccccn3)c3ccccc3c2=O)c1 | 932
30 | Cc1cc(C)cc(Nc2nc(C)cc(=O)n2CC(=O)NC(C)CCc2ccccc2)c1 (stereo not drawn) | 1030
31 | O=C(NCc1cc(F)cc(F)c1)C1CCN(c2cncnc2N2CCCCC2)CC1 | 700
32 | CCC(Oc1ccc(=O)n(-c2ccc(F)cc2)n1)C(=O)Nc1ccc(C(C)=O)cc1 (stereo not drawn) | 764
33 | O=C(COc1ccc(F)cc1)N1C[C@@H]2C[C@H]1C[C@@H]2NS(=O)(=O)c1ccccc1 | 793
34 | Cc1cccc(C)c1NC(=O)CN1C(=O)NC(c2ccc(Cl)cc2)C2=C1COC2=O (stereo not drawn) | 747
35 | Cc1ccc(-c2csc(-c3cccn3CC(=O)NCc3ccco3)n2)cc1 | 1100
36 | Nc1ncnc2c1c(-c1ccc(Oc3ccccc3)cc1)cn2C1CCCC1 | 1030
37 | CCc1noc(-c2nc(-c3ccccc3OC)no2)n1 | 986
38 | CC(C)C(=O)N1N=C(c2ccc(NS(=O)(=O)c3ccccc3)cc2)CC1c1ccco1 (stereo not drawn) | 870
39 | CC(C)CCNC(=O)NCCn1c(-c2ccc(F)cc2)nc2ccccc21 | 650
40 | Cc1ccccc1-c1noc(-c2cccnc2N2CCN(c3ccccc3)CC2)n1 | 1410
41 | O=C(Oc1coc(CSc2ncccn2)cc1=O)c1ccco1 | 667
42 | Clc1ccc(Cc2noc(Cc3nc(-c4ccccc4)cs3)n2)cc1 | 1170
43 | Cc1c(N2CCC(C(=O)NCC3CCCO3)CC2)c(=O)n(C)c(=O)n1-c1ccccc1 (stereo not drawn) | 691
44 | O=C(NCCc1csc(-c2ccc(F)cc2)n1)c1ccco1 | 868
45 | COc1cccc(OC)c1-c1cc(C(=O)NC2(C(=O)O)C3CC4CC(C3)CC2C4)nn1-c1ccc(C(=O)N(C)CCCN(C)C)cc1C(C)C (stereo not drawn) | 860
46 | CCCS(=O)(=O)c1nc2ccc(NS(=O)(=O)c3ccc(F)c(F)c3)cc2s1 | 973

Continued, values first:

Row | RP-LC retention time [s] | SMILES
47 | 562 | CCN1CCN(c2nccc(-c3cnc4nc(-c5ccncc5)nn4c3C)n2)CC1
48 | 997 | CCCn1c(=O)c2sc(N3CCCC3)nc2n(CC(=O)NCCC2=CCCCC2)c1=O
49 | 1110 | Cc1ccc(NC(=O)Cn2nc(N3CCCC(C)C3)c3ccccc3c2=O)c(F)c1 (stereo not drawn)
50 | 615 | CCCN1CCN(Cc2nc(-c3ccc(N4CCSCC4)nc3)no2)CC1
51 | 777 | Cn1ncc(NC(=O)c2ccccc2F)c(N2CCOCC2)c1=O
52 | 609 | COc1ccc(C(CC(=O)NCCN2CCCC2)N2Cc3ccccc3C2=O)cc1OC (stereo not drawn)
53 | 592 | C=CCc1cc(OC)ccc1OCC(O)CN1CCN(C(=O)OCC)CC1 (stereo not drawn)
54 | 1020 | COc1ccc(Cl)cc1NC(=O)N1CCCC(C)(C(=O)NCc2ccc(F)cc2)C1 (stereo not drawn)
55 | 646 | CCNc1cc(N2CCCC(CCC(=O)NC3CCCC3)C2)ncn1 (stereo not drawn)
56 | 917 | CCn1c(=O)sc2cc(S(=O)(=O)N3CCC(C(=O)Nc4ccc(F)cc4)CC3)ccc21
57 | 621 | CCOCC(=O)N1CCCn2cc(-c3ccccc3)nc21
58 | 769 | O=C(Nc1ccc(N2CCCCS2(=O)=O)cc1)OCc1ccccc1
59 | 586 | O=C(C1CCN(c2ncnc3c2sc2ncccc23)CC1)N1CCN(c2ccccn2)CC1
60 | 763 | Cc1nc(CC(=O)NC(C)c2ccccc2)sc1C(=O)NCC(C)C (stereo not drawn)
61 | 744 | Cc1cccc(CN2CCCn3nc(C(=O)NC4CC4)cc3C2=O)c1
62 | 671 | CCOC(=O)c1cnc2nc(C)ccc2c1Nc1cc(OC)c(OC)c(OC)c1
63 | 704 | Cc1ccc(CC(=O)N2CCN(c3cc(-c4ccc(C)cc4)ncn3)CC2)cc1
64 | 587 | CCN1C(=O)C2(CCN(S(=O)(=O)c3ccc(CC(C)C)cc3)CC2)c2ccccc21
65 | 605 | O=C(Cn1ncn2c(cc3cc(F)ccc32)c1=O)N1CCN(c2ccccn2)CC1
66 | 728 | CCn1cnc2ccc(-c3noc(Cc4ccc(OC)cc4)n3)cc21
67 | 819 | CCOC(=O)c1[nH]c(C)c(CCC(=O)Nc2ccc3c(c2)OCO3)c1C

Row | RP-LC retention time [s] | SMILES
68 | 635 | COC(=O)CNC(=O)N1CCc2cc(-c3ccc(C(=O)N4CCOCC4)cc3)ccc21
69 | 1120 | COC(=O)c1sccc1NC(=O)N1CCCC1c1cccc(C)c1 (stereo not drawn)
70 | 816 | CCOC(=O)c1c(C)[nH]c(CCC(=O)NCCC(C)C)c1C
71 | 601 | O=C(Nc1cccc(-c2nnc3n2CCCC3)c1)C1CC1
72 | 732 | COc1ccc(-n2nc3c(N4CCCC(C(=O)NC5CCCCC5)C4)nnc(C)c3c2C)cc1 (stereo not drawn)
73 | 652 | O=C(c1cn2ccccc2n1)N1CCN(c2ccc(F)cc2)CC1
74 | 718 | COCCCNC(=O)C1CCN(Cc2cc3ccccc3n2Cc2ccccc2C)CC1
75 | 694 | CCCS(=O)(=O)N1CCN(c2ccc(-n3cccn3)nn2)CC1
76 | 678 | COc1cc(C2CC(=O)c3c(C)nc(N4CCN(c5ccccn5)CC4)nc3C2)cc(OC)c1OC (stereo not drawn)
77 | 908 | COc1ccc(-c2nnc(-c3ccccc3)o2)cc1S(=O)(=O)N1CCCC1
78 | 944 | COc1ccccc1NC(=O)N1CCc2cn(C)c3cccc(c23)C1
79 | 740 | CCN1C(=O)C2(CCN(C(=O)NC(C)C)CC2)c2ccccc21
80 | 769 | CSCCC(NC(=O)COc1cccc2ccccc12)C(=O)O (stereo not drawn)
81 | 650 | O=C(NCCN1CCCCC1)c1cc2c(s1)CCN(C(=O)c1ccc(Cl)cc1)C2
82 | 1210 | COc1ccc(N2CCN(c3nc4c(c(Nc5ccccc5)n3)C(=O)CCC4)CC2)cc1
83 | 680 | CCCCN(C)C(=O)Cn1c(C2CC(=O)N(C3CCCC3)C2)nc2ccccc21 (stereo not drawn)
84 | 816 | COc1cc(N2CCN(S(=O)(=O)c3ccccc3F)CC2)nc(OC)n1
85 | 1090 | COc1ccc(-c2noc(CSc3nc4cc5c(cc4c(=O)n3CC3CCCO3)OCO5)n2)cc1 (stereo not drawn)
86 | 596 | O=C(NC1CCN(Cc2ccccc2)CC1)c1c(OCC2CC2)cc(=O)n2c1CCCCC2
87 | 1000 | O=C(NC1CCCCCC1)c1cccc(-c2nccnc2N2CCCC2)c1
88 | 687 | CCOc1ccc(CNC(=O)c2cn3ccccc3n2)cc1
